Data reported in ChEMBL document CHEMBL4177539, “Discovery of N-((3R,4R)-4-Fluoro-1-(6-((3-methoxy-1-methyl-1H-pyrazol-4-yl)amino)-9-methyl-9H-purin-2-yl)pyrrolidine-3-yl)acrylamide (PF-06747775) through Structure-Based Drug Design: A High Affinity Irreversible Inhibitor Targeting Oncogenic EGFR Mutants with Selectivity over Wild-Type EGFR” (J Med Chem, 2017).

Tests used:
physchem = settings: octanol/water
in vitro [1] = settings: human, liver microsomes
in vitro [2] = settings: dog, MDCK
Homo sapiens = species: Homo sapiens; assay: Selectivity index, ratio of IC50 for wild-type EGFR autophosphorylation in human A549 cells to IC50 for EGFR T790M/L858R double mutant autophosphorylation in human H1975 cells; assay type: cell-based

logD (physchem)	microsomal CLint at […], 1 µM (in vitro [1])	Papp (in vitro [2])	Compound	Ratio IC50 (Homo sapiens)
2.7			C=CC(=O)N[C@@H]1CCN(c2nc(Nc3cnn(C)c3)c3ncn(C(C)C)c3n2)C1	
1.8	8 µL/min/mg	20 nm/s	C=CC(=O)N[C@@H]1CN(c2nc(Nc3cn(C)nc3OC)c3nc[nH]c3n2)C[C@H]1F	
2.3			C=CC(=O)N[C@H]1CCN(c2nc(Nc3cnn(C)c3)c3ncn(C(C)C)c3n2)C1	13
